Assays:
C. albicans Hsp90 NBD [1] = target: T1, C. albicans Hsp90 NBD (Candida albicans (strain SC5314 / ATCC MYA-2876) (Yeast), UniProt P46598); conditions: cited from earlier work
[2] = test system: C. albicans clinical isolate (CaCi2); experiment: Fungicidal activity: spotting of MIC cultures onto compound-free YPD agar; type: cell-based; conditions: C. albicans CaCi2, spotted on YPD agar after 48 h exposure
Description: (§1) Color scale bar: no growth inhibition (green) to complete inhibition (black). Each shaded box represents the mean of technical duplicates. The experiment was repeated as an independent biological replicate to confirm results.
(§2) Each shaded box represents the mean of technical duplicates. Relative viable cell number was monitored by standard dye reduction assay after 3-hr incubation with resazurin at 37° C. FIG. 6B: Following exposure to compounds, aliquots of the culture in each well were spotted onto compound-free YPD agar and plates incubated at 30° C. for an additional 24 hours before imaging to assess viability. The entire experiment consisting of growth in liquid culture followed by spotting onto YPD agar was repeated once.
(§3) Antifungal sensitivity testing. […] Each compound was tested in duplicate in at least two independent experiments. […] Plates were photographed after 24 h of incubation at 30° C.

C. albicans Hsp90 NBD [3] = target: T1, C. albicans Hsp90 NBD; type: binding; conditions: equimolar protein and ligand (10 μM)
Description: Using recombinant proteins, assay-independent nanomolar inhibitory constants (Ki) were defined for these compounds. Binding of the compounds to their relevant NBD by thermal shift denaturation assays was also confirmed. Thermal shift assays were performed under saturating ligand conditions, i.e. equimolar concentrations (10 μM) of protein and ligand. As a result, they can provide only qualitative evidence of target binding, but not a quantitative measurement of ligand affinity. […] […]. C. neoformans or C. albicans Hsp90 NBD was combined with equimolar concentrations of the indicated bioactive inhibitors (10 μM) or DMSO control, in technical triplicates. The protein was heated from 25 to 98.6° C. at 0.2° C./5 s in the presence of Sypro Orange dye. All compounds induce an increase in melting temperature relative to the DMSO control, reported as ΔTm.
Protein thermal shift assays. Thermal melting curves were determined using a Protein Thermal Shift Kit (ThermoFisher #4462263), employing a CFX384 Real-Time PCR System (Bio-Rad, C1000 Touch Thermal Cycler). […] Temperature shift, ΔTm, was recorded as the difference between the Tm of the fungal Hsp90 NBD with compound minus Tm of the protein without compound.

[4] = test system: C. neoformans (Strain H99); experiment: Antifungal sensitivity testing (MIC), C. neoformans H99; type: cell-based
[5] = test system: C. albicans clinical isolate (CaCi2); type: cell-based; conditions: moderately fluconazole-resistant clinical isolate of C. albicans (CaCi2), 8 μg/mL fluconazole
Description: as §1, §2
Yeast strains and culture conditions. Strains used in this study were C. albicans CaCi2 (clinical isolate 2), [58] SC5314, [59] and C. neoformans H99. […] Active cultures were maintained on solid (2% agar) yeast extract peptone (YPD, 1% yeast extract, 2% bactopeptone, 2% glucose) at 4° C. for no more than one month.
as §3

C. neoformans Hsp90 NBD = C. neoformans Hsp90 NBD (Cryptococcus neoformans, UniProt J9VVA4); experiment: biochemical; type: binding; conditions: SPR, 25° C., read-out: Biacore KD
Description: (§4) SPR assays. For SPR experiments, Hsp90 NBD expression constructs were modified to encode a C-terminal AviTag™ for site-specific on-column biotinylation with a BirA biotin-ligase kit (Avidity LLC; BirA-500). SPR experiments were performed on a Biacore T200 instrument at 25° C. Biotinylated Hsp90 NBD was diluted to 40 μg/mL and immobilized on a streptavidin chip (Sensor Chip SA, GE Healthcare) at a density of 2000-2500 response units (RU) on the biosensor surface. […] Resulting sensorgrams were analyzed with a fit to a 1:1 binding model, using BIA evaluation software.

C. albicans Hsp90 NBD [6] = target: T1, C. albicans Hsp90 NBD; experiment: biochemical; type: binding
Description: as §4

T1 sequence (P46598 1-240 limits assumed): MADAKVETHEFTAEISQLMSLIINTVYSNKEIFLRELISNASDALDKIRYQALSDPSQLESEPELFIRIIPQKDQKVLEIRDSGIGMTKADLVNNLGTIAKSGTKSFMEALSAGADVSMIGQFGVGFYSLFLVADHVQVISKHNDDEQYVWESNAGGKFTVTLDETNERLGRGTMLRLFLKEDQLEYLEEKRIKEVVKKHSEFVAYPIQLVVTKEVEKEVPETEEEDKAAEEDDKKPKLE
C. neoformans Hsp90 NBD, sequence (J9VVA4 1-699): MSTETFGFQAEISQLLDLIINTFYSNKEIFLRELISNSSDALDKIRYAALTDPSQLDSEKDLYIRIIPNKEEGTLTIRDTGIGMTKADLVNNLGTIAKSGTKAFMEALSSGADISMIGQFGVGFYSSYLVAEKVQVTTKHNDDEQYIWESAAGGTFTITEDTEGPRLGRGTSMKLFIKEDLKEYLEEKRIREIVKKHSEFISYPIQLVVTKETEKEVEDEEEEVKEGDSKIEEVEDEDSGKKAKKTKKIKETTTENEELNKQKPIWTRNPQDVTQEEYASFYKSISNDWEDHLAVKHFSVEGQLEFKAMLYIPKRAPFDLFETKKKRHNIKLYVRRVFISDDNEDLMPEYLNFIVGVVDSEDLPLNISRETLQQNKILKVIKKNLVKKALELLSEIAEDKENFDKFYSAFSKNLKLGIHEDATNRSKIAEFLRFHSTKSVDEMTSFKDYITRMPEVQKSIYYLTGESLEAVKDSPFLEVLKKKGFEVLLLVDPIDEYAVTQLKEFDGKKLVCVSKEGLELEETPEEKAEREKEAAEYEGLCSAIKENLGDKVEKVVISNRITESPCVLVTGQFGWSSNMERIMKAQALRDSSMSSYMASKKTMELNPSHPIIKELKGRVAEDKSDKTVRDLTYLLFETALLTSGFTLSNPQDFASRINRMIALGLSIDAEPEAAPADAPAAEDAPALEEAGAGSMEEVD

Row | Compound | binding selectivity for the C. albicans Hsp90 NBD compared to the human ortholog (C. albicans Hsp90 NBD [1]) [fold] | fungicidal activity in combination with fluconazole [2] | C. albicans NBD ΔTm (C. albicans Hsp90 NBD [3]) [°C] | MIC80 ([4]; Cryptococcus neoformans, read-out: C. neo MIC80) [µM] | MIC90 ([4]; Cryptococcus neoformans, read-out: C. neo MIC90) [µM] | C. neo Active (cells) ([4]; Yes/No call) | MIC in combination with fluconazole [5] [µM] | Kd (C. neoformans Hsp90 NBD) [nM] | Kd (C. albicans Hsp90 NBD [6]) [nM]
1 | COc1ccc(CON=C2C=CC=CC3OC3CC(C)OC(=O)c3c(O)cc(O)cc3C2)cc1 (stereo not shown) [CMLD013075] | > 25 | – | – | – | – | – | – | – | –
2 | Cn1nc(-c2ccc(OC(F)(F)F)cc2)cc1Nc1cc(O)cc(O)c1C(=O)N1Cc2ccccc2C1 [Compound 130, 4-(2,3-Dihydro-1H-isoindole-2-carbonyl)-5-((1-methyl-3-(4-(trifluoromethoxy)phenyl)-1H-pyrazol-5-yl)amino)benzene-1,3-diol] | – | converted the fungistatic activity of fluconazole to fungicidal | 9 | > 25 | > 25 | No | 12.5 | 7 | –
3 | C[C@@H]1C[C@H]2O[C@@H]2/C=C\C=C\C(=O)Cc2c(Cl)c(O)cc(O)c2C(=O)O1 [Radicicol, radicicol] | – | – | – | – | – | – | – | 2 | 2

From patent US11312722B2, “Hsp90 inhibitors and uses thereof” (TRUSTEES OF BOSTON UNIVERSITY, priority 2019, dated 2022)
